Measurements published in patent US20210128457A1 (priority 2019, published 2021).
Where two headings read alike, the source gives them in different places.

Experiments:
[1] = assay type: in vitro ADME
Text: In order to understand the effect of ultrasound transcranial administration (behind the ear) to release the drug through the round window membrane (single-membrane), and the effect of ultrasound transcanal administration to release the drug through the eardrum and the round window membrane (two-membranes), 3D-printed material extrusion was used for designing three drug delivery devices:
M1: single-membrane group (FIGS. 5A to 5C), a dialysis membrane 80 was sandwiched between the donor end 10 (Donor area) and the receiving end 20 (Receptor area) for mimicking the position of the round window membrane.
M1-20°: single-membrane with tilt group, the round window membrane of the guinea pig's ear was not perpendicular to the ear canal, so the ultrasonic probe originally perpendicular to the donor end 10 was tilted at an angle of about 20 degrees (FIG. 5C) to make the experiment more realistic. That is, after the top of the ultrasonic probe was placed at the surface center of saline in the donor end 10, the angle between the long axis direction of the ultrasonic probe and the long axis direction of the device was about 20 degrees.
M1+B: The single-membrane transcranial group (FIG. 5D) differed from the single-membrane group in that the skull 90 was placed on top of the donor end 10; and
M2: two-membranes group (FIGS. 5E to 5F), the dialysis membranes 80 were respectively sandwiched between the donor end 10 and the interval chamber 30 of the device, and between the interval chamber 30 and the receiving end 20, where the donor end 10 simulated the external ear canal, the interval chamber 30 simulated the middle ear cavity, and the receiving end 20 simulated the inner ear.
The above groups simulated the actual guinea pig's ear structure and the volume in each area. The printing material was polyethylene terephthalate (PETG). A suitable molecular weight (Orange scientific, OrDial D-Clean, MW=1000) was chosen for the dialysis membrane 80 to separate the sample from the tested drug. About 400 μL of saline was injected into the receiving end 20 to simulate the actual inner ear lymph fluid volume of the guinea pig. […] The experiment samples were injected to the donor end 10 of the single-membrane group, the single-membrane transcranial group and the single-membrane with tilt group, and were injected to the interval chamber 30 of the two-membranes group, to mimic the volume of the middle ear cavity in the middle ear cavity of the guinea pigs. The single-membrane group and the two-membranes group were subjected to 3 W/cm^2 ultrasonic waves for 3 times (1 minute each time), while the single-membrane transcranial group blocked by the skull 90 was extended to 3 times (3 minutes each time) to ensure inducing the cavitation. […] In each group, saline in the receiving end 20 before the experiment, saline in the donor end 10 or the interval chamber 30 after the experiment, and saline in the receiving end 20 after the experiment were sampled for detecting fluorescence value.

[2] = assay type: in vivo, guinea pigs; details: guinea pig
Text: Pigmented guinea pigs with normal sound reflection (Preyer's reflex) were used. The experimental group was divided into the following four groups:
The structure of the ear includes an outer ear 110, a middle ear 120, an inner ear 130, a tympanic membrane 140, and a round window membrane 150. The outer ear 110 includes an external ear canal 111, the middle ear 120 includes auditory ossicles 121 and a middle ear cavity 122, and the inner ear 130 includes a cochlea 131. The ultrasonic device 210 was placed in the external ear canal 111, and the ultrasound waves were generated by an ultrasonic device 210. The ultrasound waves were transmitted to the middle ear cavity 122 and induced the cavitation on the microbubbles 220 located in the middle ear cavity 122.
3 W/cm^2 ultrasound was administered three times (3 minutes each time) at the mark place, and the solution in the middle ear cavity was replaced every time.
After the animal experiment (n=4), the animals were sacrificed and the tympanic bullae were taken out. About 10 μL of perilymph fluid was collected and centrifuged. The supernatant was diluted at a ratio of 1:100 for detecting fluorescence value.
After the animal experiment had finished (n=4), the animals were sacrificed and the tympanic bullae were taken out. About 10 μL of perilymph fluid was collected and centrifuged. The supernatant was diluted at a ratio of 1:100 for detecting fluorescence value.

[3] = tested on: cochlear hair cells; experiment: Gentamicin distribution in cochlear hair cells, RWS versus transcanal USM; details: stood 3 minutes without ultrasound
Text: Because phalloidin binds to the cytoskeletal actin, it is used to mark the location of hair cells. […] Merge column is the overlay of the left two columns, it is more obvious to see the distribution of gentamicin in the cochlea. […] The green dots indicated the uptake of gentamicin in the hair cells.

| Substance | ratio of permeability USM/RWS ([1]; M1+B single-membrane transcranial group) | relative fluorescence units of saline in the receiving end ([1]; M1+B single-membrane transcranial group, RWS) [RFU] | relative fluorescence units of saline in the receiving end ([1]; M1+B single-membrane transcranial group, USM, 3 W/cm^2, 3 times 3 minutes) [RFU] | ratio of permeability USM/RWS ([1]; M1-20° single-membrane with tilt group) | relative fluorescence units of saline in the receiving end ([1]; M1-20° single-membrane with tilt group, RWS) [RFU] | relative fluorescence units of saline in the receiving end ([1]; M1-20° single-membrane with tilt group, USM) [RFU] | ratio of permeability USM/RWS ([1]; M1 single-membrane group) | relative fluorescence units of saline in the receiving end ([1]; M1 single-membrane group, USM, 3 W/cm^2, 3 times 1 minute) [RFU] | relative fluorescence units of saline in the receiving end ([1]; M1 single-membrane group, round window soaking (RWS)) [RFU] | ratio of permeability USM/RWS ([1]; M2 two-membranes group) | relative fluorescence units of saline in the receiving end ([1]; M2 two-membranes group, RWS) [RFU] | relative fluorescence units of saline in the receiving end ([1]; M2 two-membranes group, USM, 3 W/cm^2, 3 times 1 minute) [RFU] | relative fluorescence units of perilymph fluid ([2]; RWS group A, stood 3 minutes without ultrasound) [RFU] | relative fluorescence units of perilymph fluid ([2]; RWS group B, stood 9 minutes without ultrasound) [RFU] | ratio of permeability transcanal USM/RWS group A [2] | ratio of permeability transcranial USM/RWS group B [2] | relative fluorescence units of perilymph fluid ([2]; transcanal group (USM), 3 W/cm^2, 3 times 1 minute) [RFU] | relative fluorescence units of perilymph fluid ([2]; transcranial group (USM), 3 W/cm^2, 3 times 3 minutes) [RFU] | gentamicin uptake in hair cells (green fluorescence), second turn and third turn [3] |
| --- | --- | --- | --- | --- | --- | --- | --- | --- | --- | --- | --- | --- | --- | --- | --- | --- | --- | --- | --- |
| biotin-FITC | about 3.74 folds | 631.5±21.12 | 2362±64.91 | about 5.67 folds | 309.7±20.54 | 1756.3±76.29 | about 6.91 folds | 2726.3±79.97 | 394.5±5.3 | about 4.77 folds | 285.7±7.45 | 1363.7±56.66 | 1633.33±72.63 | 6700±69.74 | about 2.83 folds | about 1.5 folds | 4206.83±202.93 | 10113±338.8 | – |
| Gentamicin | – | – | – | – | – | – | – | – | – | – | – | – | – | – | – | – | – | – | did not found the dot-like fluorescence |
